Reference: article PMC7076739, “Cytotoxycity and antiplasmodial activity of phenolic derivatives from Albizia zygia (DC.) J.F. Macbr. (Mimosaceae)” (BMC Complementary Medicine and Therapies, 2020)
Read-outs that look alike come from different tables or passages of the source.

What was measured:
[1] = system: A2058; assay: MTT cytotoxicity assay, A2058; type: cell-based; conditions: Homo sapiens, A2058, 72 h, read-out: IC50 A2058
Description: (§1) Anticancer assays: Five tumor cell lines (MiaPaca-2 (CRL-1420), a carcinoma pancreatic […]; Hep G2 (HB-80665), a perpetual cell line which was derived from the liver tissue of a […] with a well-differentiated hepatocellular carcinoma; A549 (CCL-185), a carcinoma lung from […]; A2058 (CRL-11147), Human skin melanoma from an adult derived from lymph node and MCF-7 (HTB-22), a breast adenocarcinoma […]) were obtained from ATCC. The MTT (3-(4,5-dimethylthiazol-2-yl)-2,5-diphenyltetrazoliumbromide) colorimetric assay, which measures mitochondrial metabolic activity, was employed to estimate the amount of living cells. According to the huge amount of celles to be plated, SelecT (TAP Biosystems, Royston, UK), a cell culture robotic system was used to process ten thousand cells per well (for 72 h assay). Cells were seeded at a concentration of 1× 10^4 cells/well in 200 μl culture medium and incubated at 37 °C in 5% CO2. After 24 h, the automated liquid-handling system Biomek FX (Beckman Coulter, Pasadena, CA, USA) was used to replace the medium with a final volume of 200 μL and 1 μL of compound (dilution 1/200) and to add controls to the plates and which were then be incubated for 72 h. The test compounds were examined in triplicate with serial two-fold dilutions. After incubation, MTT solution was prepared at 5 mg/mL in PBS 1X and then diluted at 0.5 mg/mL in MEM without phenol red. The sample solution in wells was removed and 100 μL of MTT dye was added to each well. The plates were gently shaken and incubated for 3 h at 37 °C in 5% CO2 incubator. The supernatant was removed and 100 μL of DMSO 100% was added. The plates were gently shaken to solubilize theoriginated formazan and absorbance at 570 nm was read in a Victor2 Wallac spectrofluorometer (PerkinElmer, Waltham, MA, USA). IC50 values were calculated as the concentration that decreases 50% of the cell viability using Genedata Screener software (Genedata AG, Basel, Switzerland). Curve fitting followed the Smart Fit strategy with Hill model selection.

[2] = system: HepG2; assay: MTT cytotoxicity assay, HepG2; type: cell-based; conditions: Homo sapiens, read-out: IC50 HepG2
Description: as §1

[3] = system: A-549; assay: MTT cytotoxicity assay, A-549; type: cell-based; conditions: Homo sapiens, read-out: IC50 A-549
Description: as §1

[4] = system: MiaPaca-2; assay: MTT cytotoxicity assay, MiaPaca-2; type: cell-based; conditions: Homo sapiens, read-out: IC50 MiaPaca-2
Description: as §1

[5] = system: P. falciparum strain 3D7; assay: P. falciparum 3D7 lactate dehydrogenase assay; type: cell-based, Plasmodium falciparum; conditions: for IC50: read-out: IC50 against P. falciparum; for times more active than natural precursor quercetin 3-O-α-L-rhamnopyranoside (2) against P. falciparum: antiplasmodial activity, strain 3D7; for SI = IC50 HepG2 cell/IC50 P. falciparum: selectivity index, HepG2 vs P. falciparum
Procedure: P. falciparum 3D7 lactate dehydrogenase assay: Parasites of the P. falciparum strain 3D7 were grown in fresh group 0 positive human erythrocytes, obtained from the Centro Regional de Transfusion Sanguınea-SAS (Granada, Spain). This assay was performed in duplicate for each compound using a sixteen (16) point dose response curve (½ serial dilutions) with concentrations starting from 50 μM until 1.5 nM to determine the IC50s of the compounds. Adding 25 μL of P. falciparum 3D7 parasite culture (per well) containing parasitized red blood cells at 0.25% parasitaemia and 2% haematocrit in RPMI-1640, 5% Albumax II, 2% […] 0.3% glutamine and 150 μM hypoxanthine and incubated at 37 °C for 72 h with 5% CO2, 5% O2 and 95% N2. For negative and positive growth controls, 10 μM chloroquine and complete parasite growth medium were respectively used. The final readouts of the assay was done by measuring the absorbance of the reactions at 650 nm in an Envision plate reader (Perkin Elmer, USA) and the results analysed by Genedata software (GenedataAG, Basel, Switzerland), parasite growth was measured by LDH assay as previously described.
The natural compounds isolated from the leaves of A. zygia as well as their semi-synthetic derivatives were tested against Plasmodium falciparum (Table 1) using a microdilution method in liquid medium as previously described.

[6] = system: MCF-7; assay: MTT cytotoxicity assay, MCF-7; type: cell-based; conditions: Homo sapiens, MCF7, 72 h, read-out: IC50 MCF-7
Description: as §1

[7] = Plasmodium falciparum, 3D7, 72 h, strain 3D7, 72 h, LDH readout
[8] = Plasmodium falciparum, 3D7, 72 h

Row | SMILES | IC50 ([1]; MTT, 72 h) | IC50 ([2]; HepG2, MTT, 72 h) | IC50 ([3]; A549, MTT, 72 h) | IC50 ([4]; MIA PaCa-2, MTT, 72 h) | IC50 [5, 7] | IC50 ([6]; MTT, 72 h) | times more active than natural precursor quercetin 3-O-α-L-rhamnopyranoside (2) against P. falciparum [5] | IC50 ([5]; strain 3D7, 72 h, LDH readout) | IC50 [5, 8] | SI = IC50 HepG2 cell/IC50 P. falciparum [5] | IC50 [1] | IC50 ([2]; HepG2, 72 h) | IC50 ([3]; A549, 72 h) | IC50 ([4]; MIA PaCa-2, 72 h) | IC50 [6]
1 | CC(=O)OCC1OC(Oc2cc(O)ccc2CC(=O)O)C(OC(C)=O)C(OC(C)=O)C1OC(C)=O (stereo not shown) [Compound 7] | 37 ± 0.25 µM | 37 ± 0.25 µM | 20.1 ± 0.25 µM | 10 ± 0.25 µM | > 100 µM | 37 ± 0.25 µM | – | – | – | – | – | – | – | – | –
2 | C[C@@H]1O[C@@H](Oc2ccc(-c3oc4cc(O)cc(O)c4c(=O)c3O[C@@H]3O[C@@H](C)[C@H](O)[C@@H](O)[C@H]3O)cc2)[C@H](O)[C@H](O)[C@H]1O [Compound 5, kaempferol 3,4′-di-O-α-L-rhamnopyranoside] | 33.7 ± 0.25 µM | 16.8 ± 0.25 µM | 33.7 ± 0.25 µM | 16.8 ± 0.25 µM | > 100 µM | 33.7 ± 0.25 µM | – | – | – | – | – | – | – | – | –
3 | CC(=O)OC1C(C)OC(Oc2c(-c3ccc(O)c(O)c3)oc3cc(O)cc(O)c3c2=O)C(OC(C)=O)C1OC(C)=O (stereo not shown) [Compound 9] | 12.2 ± 0.25 µM | 22.6 ± 0.25 µM | 34.8 ± 0.25 µM | 17.4 ± 0.25 µM | 7.47 ± 0.25 µM | 10.8 ± 0.25 µM | over 3 times | 7.5 ± 0.25 µM | – | – | – | – | – | – | –
4 | C[C@@H]1O[C@@H](Oc2ccc(-c3oc4cc(O)cc(O)c4c(=O)c3O[C@@H]3O[C@@H](C)[C@H](O)[C@@H](O)[C@H]3O)cc2O)[C@H](O)[C@H](O)[C@H]1O [Compound 4, quercetin 3,4′-di-O-α-L-rhamnopyranoside] | 34.6 ± 0.25 µM | 17.3 ± 0.25 µM | 34.6 ± 0.25 µM | 17.3 ± 0.25 µM | > 100 µM | 17.3 ± 0.25 µM | – | – | – | – | – | – | – | – | –
5 | CC(=O)Oc1cc(O)c2c(=O)c(OC3OC(C)C(OC(C)=O)C(OC(C)=O)C3OC(C)=O)c(-c3ccc(O)c(O)c3)oc2c1 (stereo not shown) [Compound 10] | – | 64.9 ± 0.25 µM | 30.5 ± 0.25 µM | 64.9 ± 0.25 µM | 6.77 ± 0.25 µM | – | over 3 times | 6.8 ± 0.25 µM | – | – | – | – | – | – | –
6 | CC(=O)OCC1OC(Oc2cc(OC(C)=O)ccc2CC(=O)O)C(OC(C)=O)C(OC(C)=O)C1OC(C)=O (stereo not shown) [Compound 8] | 40.2 ± 0.25 µM | 40.2 ± 0.25 µM | 20.1 ± 0.25 µM | 18.5 ± 0.25 µM | > 100 µM | 40.2 ± 0.25 µM | – | – | – | – | – | – | – | – | –
7 | COc1cccc2c1C(=O)c1c(O)c3c(c(O)c1C2=O)C[C@@](O)(C(=O)CO)C[C@@H]3O[C@H]1C[C@H](N)[C@H](O)[C@H](C)O1 [Doxorubicin, reference compound] | < 7e-05 µM | < 7e-05 µM | < 7e-05 µM | < 7e-05 µM | – | < 7e-05 µM | – | – | – | – | – | – | – | – | –
8 | CCN(CC)CCCC(C)Nc1ccnc2cc(Cl)ccc12 (stereo not shown) [Chloroquine, chloroquine, reference compound] | – | – | – | – | – | – | – | – | 0.00296 µM | – | – | – | – | – | –
9 | C[C@@H]1O[C@@H](Oc2c(-c3ccc(O)cc3)oc3cc(O)cc(O)c3c2=O)[C@H](O)[C@H](O)[C@H]1O [Compound 3, kaempferol 3-O-α-L-rhamnopyranoside] | 46.4 ± 0.25 µM | 23.2 ± 0.25 µM | 23.2 ± 0.25 µM | 46.4 ± 0.25 µM | 19 ± 0.25 µM | 46.4 ± 0.25 µM | – | – | – | (1.22) | – | – | – | – | –
10 | C[C@@H]1O[C@@H](Oc2c(-c3ccc(O)c(O)c3)oc3cc(O)cc(O)c3c2=O)[C@H](O)[C@H](O)[C@H]1O [Compound 2, quercetin 3-O-α-L-rhamnopyranoside] | – | – | – | – | – | – | – | – | 25.1 ± 0.25 µM | (3.49) | 87.5 ± 0.25 µM | 87.5 ± 0.25 µM | 89.5 ± 0.25 µM | 87.5 ± 0.25 µM | 87.5 ± 0.25 µM
11 | O=C(O)Cc1ccc(O)cc1OC1OC(CO)C(O)C(O)C1O [Compound 1, 2-O-β-D-glucopyranosyl-4-hydroxyphenylacetic acid] | 66.7 ± 0.25 µM | 121.2 ± 0.25 µM | 121.2 ± 0.25 µM | 30.3 ± 0.25 µM | > 100 µM | 42.7 ± 0.25 µM | – | – | – | – | – | – | – | – | –
